Laboratory results from patent publication US20170150719A1, “FUNGICIDAL PYRAZOLES AND THEIR MIXTURES” (E I DU PONT DE NEMOURS AND COMPANY, priority 2010, published 2017).
Marks after values point to notes of the source that are not given here.

Experiments:
[1] = test system: Puccinia recondita f. sp. tritici; assay: Test H: wheat leaf rust, preventive spray on wheat seedlings, visual disease rating; settings: 100 = 100% disease control; for Test H rating (disease control) / Test H rating (% disease control): wheat leaf rust; for Test H rating (disease control): sprayed the day before inoculation; for Test H rating (disease control) / pest or weed control at 200 µg/mL: 0 = no disease control; for Test H rating (% disease control): preventive spray, rating without asterisk; for pest or weed control at 200 µg/mL: read-out: Test H rating (disease control), wheat leaf rust, sprayed the day before inoculation
Botrytis cinerea = assay: Test A: tomato Botrytis, preventive spray on tomato seedlings, visual disease rating; settings: 100 = 100% disease control; for Test A rating (disease control) / Test A rating (% disease control): tomato Botrytis; for Test A rating (disease control) / pest or weed control at 200 µg/mL: 0 = no disease control relative to the controls; for Test A rating (% disease control): preventive spray, 0 = no control relative to controls, rating without asterisk; for pest or weed control at 200 µg/mL: Botrytis cinerea, in Solanum lycopersicum, read-out: Test A rating (disease control), tomato Botrytis
[2] = test system: Puccinia recondita f. sp. tritici; assay: Test G: wheat leaf rust, spray after inoculation (curative) on wheat seedlings, visual disease rating; type: in vivo; settings: 100 = 100% disease control; for Test G rating (disease control) / pest or weed control at 200 µg/mL: sprayed after inoculation, 0 = no disease control; for Test G rating (% disease control): spray after inoculation, rating without asterisk
From the text: (§1) A hyphen (-) indicates no test results.

[3] = test system: Blumeria graminis f. sp. tritici; assay: Test I: wheat powdery mildew, preventive spray on wheat seedlings, visual disease rating; settings: for Test I rating (disease control) / Test I rating (% disease control) / pest or weed control at 200 µg/mL: 100 = 100% disease control; for Test I rating (disease control) / pest or weed control at 200 µg/mL: 0 = no disease control relative to the controls; for Test I rating (% disease control): preventive spray, rating without asterisk; for pest or weed control at 200 µg/mL: Blumeria graminis, in Triticum aestivum, read-out: Test I rating (disease control), wheat powdery mildew
Experimental: General protocol for preparing test suspensions for Tests A-I: the test compounds were first dissolved in acetone in an amount equal to 3% of the final volume and then suspended at the desired concentration (in ppm) in acetone and purified water (50/50 mix by volume) containing 250 ppm of the surfactant Trem® 014 (polyhydric alcohol esters). The resulting test suspensions were then used in Tests A-I. Each test was conducted in triplicate, and the results were averaged. Spraying a 200 ppm test suspension to the point of run-off on the test plants was the equivalent of a rate of about 800 g/ha. Unless otherwise indicated, the rating values indicate a 200 ppm test suspension was used. (An asterisk “*” next to the rating value indicates a 40 ppm test suspension was used.)
The test suspension was sprayed to the point of run-off on wheat seedlings. The following day the seedlings were inoculated with a spore dust of Blumeria graminis f. sp. tritici (also known as Erysiphe graminis f. sp. tritici, the causal agent of wheat powdery mildew) and incubated in a growth chamber at 20° C. for 8 days, after which time visual disease ratings were made.

Septoria tritici = assay: Test F: wheat leaf blotch, preventive spray on wheat seedlings, visual disease rating; type: in vivo; parameters: Test F rating (disease control), value marked *: concentration or dose not given beside the values; settings: for Test F rating (disease control) / Test F rating (% disease control) / pest or weed control at 200 µg/mL: 100 = 100% disease control; for Test F rating (disease control) / pest or weed control at 200 µg/mL: 0 = no disease control relative to the controls; for Test F rating (% disease control): preventive spray, rating without asterisk; for pest or weed control at 200 µg/mL: Zymoseptoria tritici
From the text: as §1

Alternaria solani = assay: Test B: tomato early blight, preventive spray on tomato seedlings, visual disease rating; settings: for Test B rating (disease control) / Test B rating (% disease control): tomato early blight, 100 = 100% disease control; for Test B rating (disease control): 0 = no disease control relative to the controls; for Test B rating (% disease control): preventive spray, rating without asterisk; for pest or weed control at 200 µg/mL: Alternaria solani, in Solanum lycopersicum, read-out: Test B rating (disease control)
Septoria nodorum = assay: Test E: Septoria glume blotch, preventive spray on wheat seedlings, visual disease rating; settings: 100 = 100% disease control; for Test E rating (disease control): Septoria glume blotch; for Test E rating (disease control) / pest or weed control at 200 µg/mL: 0 = no disease control relative to the controls; for Test E rating (% disease control): Septoria glume blotch on wheat, preventive spray, rating without asterisk; for pest or weed control at 200 µg/mL: Parastagonospora nodorum, in Triticum aestivum, read-out: Test E rating (disease control), Septoria glume blotch

| Structure (SMILES) | Test H rating (disease control) [1] | Test A rating (disease control) (Botrytis cinerea) | Test G rating (disease control) [2] | Test I rating (disease control) ([3]; wheat powdery mildew) | Test F rating (disease control) (Septoria tritici) | Test B rating (disease control) (Alternaria solani) | Test E rating (disease control) (Septoria nodorum) | further results |
| --- | --- | --- | --- | --- | --- | --- | --- | --- |
| Cc1nn(C)c(Nc2ccc(Br)cc2Cl)c1-c1ccc(F)cc1Cl [compound 172] | 100% | 100% | 0% | 100% | 100% | 73% | 60% | – |
| Cc1nn(C)c(Nc2c(F)cc(I)cc2F)c1-c1ccc(F)cc1Br [compound 218] | – | – | – | – | – | – | – | Test H rating (% disease control) [1]: 99%; Test A rating (% disease control) (Botrytis cinerea): 100%; Test G rating (% disease control) [2]: 0%; Test I rating (% disease control) ([3]; wheat powdery mildew): 99%; Test F rating (% disease control) (Septoria tritici): 100%; Test B rating (% disease control) (Alternaria solani): 68%; Test E rating (% disease control) (Septoria nodorum): 86% |
| Cc1nn(C)c(Nc2ccc(Br)cc2Br)c1-c1ccc(F)cc1F [compound 184] | – | – | – | – | – | – | – | Test H rating (% disease control) [1]: 98%; Test A rating (% disease control) (Botrytis cinerea): 100%; Test G rating (% disease control) [2]: 0%; Test I rating (% disease control) ([3]; wheat powdery mildew): 100%; Test F rating (% disease control) (Septoria tritici): 100%; Test B rating (% disease control) (Alternaria solani): 58%; Test E rating (% disease control) (Septoria nodorum): 60% |
| Cc1nn(C)c(Nc2ccc(F)cc2I)c1-c1ccc(F)cc1F [compound 175] | 100% | 100% | 41% | 100% | 100% | 97% | 73% | – |
| Cc1nn(C)c(Nc2c(F)cc(F)cc2F)c1-c1ccc(F)cc1Cl [Compound 4, 4-(2-chloro-4-fluorophenyl)-1,3-dimethyl-N-(2,4,6-trifluorophenyl)-1H-pyrazol-5-amine] | – | – | – | – | – | – | – | pest or weed control at 200 µg/mL [1]: 100%; pest or weed control at 200 µg/mL (Botrytis cinerea): 99%; pest or weed control at 200 µg/mL [2]: 99%; pest or weed control at 200 µg/mL [3]: 100%; pest or weed control at 200 µg/mL (Septoria tritici): 95%; pest or weed control at 200 µg/mL (Alternaria solani): 100%; pest or weed control at 200 µg/mL (Septoria nodorum): 99% |
| COc1cc(Cl)c(Nc2c(-c3ccc(F)cc3Br)c(C)nn2C)c(Cl)c1 [compound 102] | 94% | 98% | 0% | – | 98% | 0% | 0% | Test I rating (disease control), value marked * ([3]; wheat powdery mildew, rating marked with asterisk (*), not explained in the text shown): 95* % |
| COc1cc(F)c(Nc2c(-c3c(F)cc(OC)cc3F)c(C)nn2C)c(F)c1 [compound 21] | 96% | 100% | 99% | 94% | 99% | 100% | 89% | – |
| Cc1nn(C)c(Nc2c(Cl)cc(F)cc2Cl)c1-c1c(Cl)cccc1Cl [compound 115] | 99% | 99% | 0% | 93% | 99% | 0% | 0% | – |
| Cc1nn(C)c(Nc2c(Cl)cc(Br)cc2Cl)c1-c1ccc(F)cc1Br [compound 168] | 91% | 0% | 97% | 48% | 100% | 0% | 0% | – |
| COc1ccc(-c2c(C)nn(C)c2Nc2c(F)cc(F)cc2Br)c(Cl)c1 [compound 221] | – | – | – | – | – | – | – | Test H rating (% disease control) [1]: 99%; Test A rating (% disease control) (Botrytis cinerea): 100%; Test G rating (% disease control) [2]: 73%; Test I rating (% disease control) ([3]; wheat powdery mildew): 100%; Test F rating (% disease control) (Septoria tritici): 100%; Test B rating (% disease control) (Alternaria solani): 100%; Test E rating (% disease control) (Septoria nodorum): 97% |
| COc1ccc(Nc2c(-c3ccc(F)cc3Br)c(C)nn2C)c(Cl)c1 [compound 103] | 99% | 99% | 63% | 99% | 100% | 83% | 0% | – |
| COc1ccc(-c2c(C)nn(C)c2Oc2c(F)cc(C#N)cc2F)c(Cl)c1 [compound 41] | 100% | 100% | 92% | 99% | 100% | 99% | 100% | – |
| Cc1nn(C)c(Nc2ccc(F)cc2Cl)c1-c1ccc(F)cc1Br [compound 96] | 100% | 100% | 94% | 100% | 100% | 95% | 0% | – |
| Cc1nn(C)c(Nc2ccc(Cl)cc2Cl)c1-c1c(F)cccc1Cl [compound 78] | 99% | 99% | 9% | 100% | – | 65% | 0% | Test F rating (disease control), value marked * (Septoria tritici; rating marked with asterisk (*), other test condition, not explained in the text shown): 99* % |
| COc1cc(F)c(Nc2c(-c3c(F)cccc3Cl)c(C)nn2C)c(F)c1 [compound 55] | 100% | 99% | 94% | 99% | 100% | 99% | 80% | – |
| Cc1nn(C)c(Nc2c(F)cc(F)cc2F)c1-c1ccc(F)cc1F [Compound 11, 4-(2,4-difluorophenyl)-1,3-dimethyl-N-(2,4,6-trifluorophenyl)-1H-pyrazol-5-amine] | – | – | – | – | – | – | – | pest or weed control at 200 µg/mL [1]: 100%; pest or weed control at 200 µg/mL (Botrytis cinerea): 100%; pest or weed control at 200 µg/mL [2]: 0%; pest or weed control at 200 µg/mL [3]: 99%; pest or weed control at 200 µg/mL (Septoria tritici): 94%; pest or weed control at 200 µg/mL (Alternaria solani): 99%; pest or weed control at 200 µg/mL (Septoria nodorum): 90% |
| COc1ccc(-c2c(C)nn(C)c2Nc2c(F)cc(Cl)cc2F)c(Cl)c1 [compound 204] | – | – | – | – | – | – | – | Test H rating (% disease control) [1]: 100%; Test A rating (% disease control) (Botrytis cinerea): 99%; Test G rating (% disease control) [2]: 99%; Test I rating (% disease control) ([3]; wheat powdery mildew): 100%; Test F rating (% disease control) (Septoria tritici): 100%; Test B rating (% disease control) (Alternaria solani): 99%; Test E rating (% disease control) (Septoria nodorum): 99% |
